Data from patent US20230043948A1, “METHOD AND KIT FOR CELL GROWTH” (PRECISION CANCER TECHNOLOGIES INC ., priority 2019, published 2023).
“Also recorded” adds a separate entry of the source. Like-named read-outs stand apart in the source and are kept apart here.

Assays:
[1] = test system: lung cancer cells overexpressing the EGFR receptor (PDX); test: ex vivo drug testing of lung cancer cells overexpressing EGFR in 3D hydrogel; assay type: cell-based, human
[2] = test system: lung cancer cells overexpressing the c-Met receptor (PDX, LXFA-1647); test: ex vivo drug testing of lung cancer cells overexpressing c-Met in a 3D hydrogel array / Matrigel; assay type: cell-based, human
Text: A PEG was used as a hydrogel precursor molecule for making a non self-degradable hydrogel. As a crosslinking agent, peptides containing at least two, preferably two cysteine moieties were used which varied in their amino acid sequence, in particular with respect to the presence or absence of a RGD adhesion motif and with respect to the presence or absence of a MMP degradation sequence. A further variation that was made to some hydrogels was the attachment of a bioactive ligand comprising a RGD adhesion motif or/and a ligand selected from the group consisting of natural laminins, recombinant laminin isoforms, and biofunctional fragments thereof. Examples of suitable recombinant laminin isoforms are laminin-111, laminin-211, laminin-332, laminin-411, laminin-511, or laminin-521. An array of hydrogels varying in the above preselected features was established, by the method described above.
The mechanical properties of the hydrogels were also varied (soft (50-1000 Pa), medium (1000-2000 Pa) or hard (2000-3000 Pa) gels).
For comparison, tests were also conducted in the undefined natural-derived matrix Matrigel®.
The respective drug was added to the culture media after 1 to 8 days of culture (1 to 8 days post cell encapsulation). The drug response was measured after 5 to 10 days post-drug addition. As a preferred culture medium, a medium was preselected that is characterized by the presence of FBS (serum) or Wnt agonists such as R-spondin. According to this example, a culture medium was used that was adapted from the medium described in Sachs et al. (The EMBO Journal e 100300|2019). The preferred culture medium comprised AdDMEM/F12 medium supplemented with glutamine, Noggin, EGF, fibroblast growth factor 7 and 10 [FGF7 and FGF10], HGF, R-spondin-conditioned medium, Primocin, penicillin/streptomycin, N-acetyl-L-cysteine, Nicotinamide, A83-01, SB202190 (p38-inhibitor), Y-27632 (rock inhibitor), B27 supplement and HEPES. Target expression (c-Met and Phospho c-Met) was detected by Western-blot in corresponding growth conditions.

[3] = test system: non-small cell lung cancer (NSCLC) model LXFA-1647; test: in vivo treatment of patient-derived xenograft (PDX) NSCLC model; set-up: species or system human; details: PDX NSCLC model LXFA-1647
[4] = Matrigel as matrix (comparative example 1), FIG. 1c
[5] = conditions of example 1a: soft non self-degradable PEG hydrogel without any RGD motif (responder conditions), FIG. 1b
[6] = responder conditions of example 1a (hydrogel without any RGD motif), FIG. 1e

SMILES | drug response (effect of treatment) [1] | drug response (effect of treatment) [2, 4] | drug response (effect of treatment) [2, 5] | drug response (effect of treatment) ([2]; hydrogel with 1 mM bioactive ligand comprising a RGD motif attached (non-responder conditions, example 1b)) | drug response (effect of treatment) [1, 6] | tumor growth in vivo [3]
C#Cc1cccc(Nc2ncnc3cc(OCCOC)c(OCCOC)cc23)c1 [Erlotinib] | clear effect |  |  |  |  | 
OCCn1cc(-c2cnc3nnn(Cc4ccc5ncccc5c4)c3n2)cn1 [PF-04217903] |  | did not respond; also recorded: No effect | clearly effective | resistant | no effect | induces tumor growth regression
CC(=O)O[C@@]12CO[C@@H]1C[C@H](O)[C@@]1(C)C(=O)[C@H](O)C3=C(C)[C@@H](OC(=O)[C@H](O)[C@@H](NC(=O)OC(C)(C)C)c4ccccc4)C[C@@](O)([C@@H](OC(=O)c4ccccc4)[C@H]21)C3(C)C [Docetaxel] |  | an effect | clearly effective |  |  | 
CC(=O)O[C@H]1C(=O)[C@@]2(C)[C@H]([C@H](OC(=O)c3ccccc3)[C@]3(O)C[C@H](OC(=O)[C@H](O)[C@@H](NC(=O)c4ccccc4)c4ccccc4)C(C)=C1C3(C)C)[C@]1(OC(C)=O)CO[C@@H]1C[C@@H]2O [Paclitaxel] |  |  |  |  | clear effect | 
